According to PMC3723632, “A Multi-targeted Drug Candidate with Dual Anti-HIV and Anti-HSV Activity” (PLoS Pathogens, 2013):
Converted amounts (≈) assume the structure as drawn. Like-named read-outs stand apart in the source and are kept apart here.

Assays:
HIV-1(IIIB) = experiment: Anti-HIV-1 activity in CD4+ T-lymphocyte CEM cell cultures; format: cell-based; settings: Human immunodeficiency virus 1, CCRF-CEM, virus-induced cytopathicity
Text: (§1) Human CD4 ^+ T-lymphocyte CEM cell cultures were inoculated with HIV-1 and HIV-2 and exposed to adefovir, tenofovir, or PMEO-DAPym. […]

HIV-2(ROD) = experiment: Anti-HIV-2 activity in CD4+ T-lymphocyte CEM cell cultures; format: cell-based; settings: Human immunodeficiency virus 2, CCRF-CEM
Text: as §1

HSV-1 and HSV-2 strains = experiment: HSV cytopathicity assay in HEL cell cultures, HSV-1 and HSV-2 stated together; format: cell-based
Method: Figure 2 Antiherpetic activity of test compounds in cell culture. Confluent HEL cell cultures were exposed to 100 TCID50 of clinical virus isolates [wild-type HSV-1 (panel A), wild-type HSV-2 (panel B), TK^− HSV-1 (panel C) and TK^− HSV-2 (panel D)] in the presence of drugs at different concentrations and incubated for 3 days at 37°C. Then, the cytopathicity was determined microscopically and the EC50 values determined. ^aEC50, 50% effective concentration or compound concentration required to reduce virus-induced cytopathicity (CPE) by 50%. Data shown are the means of at least two independent experiments. The HSV-1, HSV-2, HSV-1 TK^−, and HSV-2 TK^− clinical isolates have been described in reference 19, including the nature of the mutations in the TK gene of the acyclovir-resistant virus strains.

CCR5 = experiment: Flow cytometry of CCR5 expression on PBMC; format: cell-based, human; settings: for CCR5 decrease / decrease of CCR5 expression on the cell surface: 24 h; for CCR5 expression, % of control: 72 h
Method: Figure 9 Expression of CC-chemokines, CCR5 and chemokine mRNA expression in PBMC cultures after drug treatment. Panel A: Production of CC-chemokines by PBMC and the effects of adefovir, tenofovir, and PMEO-DAPym on the expression of the CCR5 receptor. Freshly isolated PBMCs from four healthy donors were incubated for 24 h with medium only (NC) or with adefovir, tenofovir, or PMEO-DAPym. We collected the supernatants and measured the concentrations of MIP-1α (▪), MIP-1β (▴), and RANTES (•) using a Bioplex system (Bio-Rad, Hercules, CA). Shown are means ± SEM. The cells were also collected, and the expression of the CCR5 receptor (□) was measured with flow cytometry using the PE-labeled CCR5 (clone 2D7) mAb; it is shown as percentage of control (± SEM) from four independent representative experiments. Panel B: Chemokine mRNA expression upon PMEO-DAPym exposure to PBMC. RT-PCR analysis of MIP-1α, MIP-1β, RANTES, and GAPDH (control) expression in PBMC treated with 100-µg/ml PMEO-DAPym for 4 h. Similar results were obtained with PBMC from three different donors. Results from one representative donor are shown.
Figure 11 Expression of the HIV-1 coreceptor CCR5 on PBMCs after treatment with adefovir, tenofovir, or PMEO-DAPym. We treated PBMC with the drugs for 24 h and collected and analyzed the cells using flow cytometry. Cell surface expression of CD4 and the chemokine receptor CCR5 were measured with the fluorescein isothiocyanate-labeled CD4 specific mAb (clone SK3) and the phycoerythrin-labeled CCR5 (clone 2D7). The percentages of positive cells in each quadrant of the dot plots are given. The data shown are from one representative experiment that was independently repeated at least four times. TEXT PRINTED IN THE PICTURE: adefovir: 54% (500 μg/ml); 7% (500 μg/ml); 6% (500 μg/ml) | tenofovir: 50% (500 μg/ml); 6% (500 μg/ml); 5% (500 μg/ml) | PMEO-DAPym: 54% (500 μg/ml); 1% (500 μg/ml); 2% (500 μg/ml); 55% (100 μg/ml); 1% (100 μg/ml); 2% (100 μg/ml); 54% (20 μg/ml); 3% (20 μg/ml); 3% (20 μg/ml) DOUBTS OF THE COPYIST ABOUT THIS PICTURE: The percentages are quadrant labels in dot plots (axes: CD4 expression, CCR5 expression). No measure is printed beside them. For each plot they are listed in the order upper left, upper right, lower right. / The Control plot (51%, 8%, 6%) is left out because it is not a substance.
PBMC were cultured in the presence of adefovir, tenofovir, and PMEO-DAPym and incubated at 37°C in a humidified, 5% CO2-controlled atmosphere. The expression of cellular activation markers was measured after 3 days of culture. Briefly, after washing the cells with PBS containing 2% FCS, we incubated them with PerCP-conjugated anti-CD4 mAb (clone SK3) in combination with PE-conjugated anti-CD25, anti-CD69, or anti-HLA-DR mAbs for 30 min at room temperature. For aspecific background staining, cells were stained in parallel with Simultest Control IgG γ1/γ2a and PerCP-conjugated mouse IgG1. Finally, the cells were washed with PBS, fixed with 1% formaldehyde solution, and analyzed with a FACSCalibur (BD Biosciences, San Jose, CA); data were acquired with CellQuest software and further analyzed with the FLOWJO software (Tree Star, San Carlos, CA). […], and PBMC were incubated with PerCP-conjugated anti-CD4 mAb (clone SK3) in combination with APC-conjugated anti-CXCR4 mAb (clone 12G5) and PE-conjugated anti-CCR5 (clone 2D7) or anti-CXCR3 (clone 1C6). To evaluate the biological effects of the β-chemokines produced by drug-treated PBMC, freshly isolated PBMC were incubated for 1 h at 37°C with supernatants collected from PBMC cultures treated with compounds for 24 h. Then, cells were incubated with PerCP-conjugated anti-CD4 mAb (clone SK3) in combination with PE-conjugated anti-CCR5 mAb (clone 2D7) for 30 min at room temperature. […]

[1] = HIV-2(ROD), CEM, virus-induced cytopathicity, read-out: EC50
[2] = thirteen clinical wild-type HSV-1 and HSV-2 isolates, read-out: average EC50
[3] = wild-type laboratory HSV-1 and HSV-2 strains, range, read-out: EC50

SMILES | EC50 (HIV-1(IIIB)) [µg/mL] | EC50 (HIV-2(ROD); [1]) [µg/mL] | EC50 (HSV-1 and HSV-2 strains; [2]) [µg/mL] | EC50 (HSV-1 and HSV-2 strains; [3]) [µg/mL] | CCR5 decrease (CCR5) | EC50 (HSV-1 and HSV-2 strains; TK− HSV isolates, read-out: average EC50) [µg/mL] | decrease of CCR5 expression on the cell surface (CCR5; 20 µg/ml) [%] | decrease of CCR5 expression on the cell surface (CCR5; 100 µg/ml) [%] | decrease of CCR5 expression on the cell surface (CCR5; 500 µg/ml) [%] | CCR5 expression, % of control (CCR5; 20 µg/ml) [%] | CCR5 expression, % of control (CCR5; 100 µg/ml) [%] | CCR5 expression, % of control (CCR5; 500 µg/ml) [%] | EC50 (HIV-2(ROD)) [µg/mL]
Nc1ncnc2c1ncn2CCOCP(=O)(O)O [Adefovir, 9-(2-phosphonylmethoxyethyl)adenine] | 0.96 ± 0.24 (≈ 3.51 µM) | 1.9 ± 1.1 (≈ 6.95 µM) | ~6 (≈ 22 µM) | 2.6 to 6.3 (≈ 9.52 to 23.1 µM) | Neither adefovir nor tenofovir induced a marked CCR5 decrease | – | – | – | – | – | – | – | –
Nc1cc(OCCOCP(=O)(O)O)nc(N)n1 [PMEO-DAPym, 6-phosphonylmethoxyethoxy-2,4-diaminopyrimidine] | 0.9 ± 0.4 (≈ 3.41 µM) | 0.66 ± 0.19 (≈ 2.5 µM) | ~2 (≈ 7.57 µM) | 2.6 to 6.3 (≈ 9.84 to 23.8 µM) | – | 2.4 (≈ 9.08 µM) | 60 | ≥ 75 | ≥ 75 | 60 | 38 | 10 | –
C[C@H](Cn1cnc2c(N)ncnc21)OCP(=O)(O)O [Tenofovir, 9-(2-phosphonylmethoxypropyl)adenine] | 0.36 ± 0.24 (≈ 1.25 µM) | – | ~130 (≈ 453 µM) | 105 to 122 (≈ 366 to 425 µM) | Neither adefovir nor tenofovir induced a marked CCR5 decrease | – | – | – | – | – | – | – | 0.43 ± 0.41 (≈ 1.5 µM)
